Reference: US7829528B2, “Compositions and methods for treating STAT-6 associated diseases or conditions” (The Rockefeller University, priority 2004, dated 2010)
Where no end group is shown, it is not given here.

Test system: IL-13 mRNA
Test: Semiquantitative RT-PCR of IL-13 mRNA in splenocytes
Type: cell-based, BALB/c mice
Conditions: splenocytes cultured with ovalbumin plus peptide
Procedure: The levels of mRNA encoding IL-4, IL-13 and IFN-gamma were also evaluated by semiquantitative RT-PCR analysis. Ovalbumin-induced expression of both IL-4 and IL-13 mRNA was inhibited in splenocytes cultured with the STAT-6-IP and not the STAT-6-CP. […] The number of CD4+ T cells producing IL-4 was also quantified by intracellular cytokine staining. When splenocytes from ovalbumin-sensitized mice were cultured with ovalbumin, there was a significant increase in the number of CD4+ lymphocytes expressing IL-4 (Table 4). The increase in IL-4 expression was abrogated in splenocytes cultured with ovalbumin in the presence of the STAT-6-IP, while the STAT-6-CP had no effect.
Reverse transcriptase (RT)-PCR was used to monitor expression of mRNAs encoding IL-4, IL-13 and IFN-gamma. Materials for RNA extraction and RT-PCR were purchased from INVITROGEN™ Canada (Burlington, Ontario). Total RNA was extracted from splenocytes, treated with DNAse, and 1 μg of RNA was reverse transcribed into cDNA using SUPERSCRIPT™ II reverse transcriptase. […] PCR products were resolved by gel electrophoresis and visualized and quantified on a FLUORCHEM™ 8000 Imaging System (Alpha Innotech, San Leandro, Calif.) using ALPHAEASE™ software (Alpha Innotech). […]

YARAAARQARAGRGFVSTT [STAT-6-CP, STAT-6 Tyr-641 mutant, control peptide]
Inhibition of ovalbumin-induced expression of IL-13 mRNA: not
